Tests used:
Test in all cases: relative viability (nuclei count vs DMSO), 5 days (fraction); higher = more cells survive
VE-821 + AZD7762 = compound: CS(=O)(=O)c1ccc(-c2cnc(N)c(C(=O)Nc3ccccc3)n2)cc1 [VE-821] + NC(=O)Nc1cc(-c2cccc(F)c2)sc1C(=O)N[C@H]1CCCNC1 [AZD7762] (partner 0.2 µM)
Summary of the method: (§1)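 Lung cancer cell lines were seeded in 1536-well plates and dosed by pin tool the next day, with either a single drug or a fixed anchor-drug dose combined with five library-drug doses (not always all listed) spaced in √10 steps. Five days later, one step fixed the cells and stained their nuclei (final 0.05% Triton X-100, 1% formaldehyde, 1 ug/ml Hoechst), and nuclei were counted on 4× images. Relative viability is the nuclei count in treated wells divided by the count in vehicle wells, and each value is the median of duplicate plates.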

VE-821 + Vorinostat = compound: CS(=O)(=O)c1ccc(-c2cnc(N)c(C(=O)Nc3ccccc3)n2)cc1 [VE-821] + O=C(CCCCCCC(=O)Nc1ccccc1)NO [Vorinostat] (partner 1 µM)
Summary of the method: as §1

Vismodegib + Bortezomib = compound: CS(=O)(=O)c1ccc(C(=O)Nc2ccc(Cl)c(-c3ccccn3)c2)c(Cl)c1 [Vismodegib] + CC(C)C[C@H](NC(=O)[C@H](Cc1ccccc1)NC(=O)c1cnccn1)B(O)O [Bortezomib] (partner 0.002 µM)
Summary of the method: as §1

Vismodegib + Alpelisib = compound: CS(=O)(=O)c1ccc(C(=O)Nc2ccc(Cl)c(-c3ccccn3)c2)c(Cl)c1 [Vismodegib] + Cc1nc(NC(=O)N2CCC[C@H]2C(N)=O)sc1-c1ccnc(C(C)(C)C(F)(F)F)c1 [Alpelisib] (partner 2 µM)
Summary of the method: as §1

Row | Cell Line | relative viability (VE-821 + AZD7762; first compound 0.08 µM) | relative viability (VE-821 + AZD7762; first compound 0.253 µM) | relative viability (VE-821 + AZD7762; first compound 0.8 µM) | relative viability (VE-821 + AZD7762; first compound 2.53 µM) | relative viability (VE-821 + AZD7762; first compound 8 µM) | relative viability (VE-821 + Vorinostat; first compound 0.08 µM) | relative viability (VE-821 + Vorinostat; first compound 0.253 µM) | relative viability (VE-821 + Vorinostat; first compound 0.8 µM) | relative viability (VE-821 + Vorinostat; first compound 2.53 µM) | relative viability (VE-821 + Vorinostat; first compound 8 µM) | relative viability (Vismodegib + Bortezomib; first compound 0.08 µM) | relative viability (Vismodegib + Bortezomib; first compound 0.253 µM) | relative viability (Vismodegib + Bortezomib; first compound 0.8 µM) | relative viability (Vismodegib + Bortezomib; first compound 2.53 µM) | relative viability (Vismodegib + Bortezomib; first compound 8 µM) | relative viability (Vismodegib + Alpelisib; first compound 0.08 µM) | relative viability (Vismodegib + Alpelisib; first compound 0.253 µM) | relative viability (Vismodegib + Alpelisib; first compound 0.8 µM) | relative viability (Vismodegib + Alpelisib; first compound 2.53 µM) | relative viability (Vismodegib + Alpelisib; first compound 8 µM)
1 | NCI-H23 | 0.18 | 0.148 | 0.153 | 0.14 | 0.126 | 0.759 | 0.476 | 0.309 | 0.285 | 0.139 | 1.16 | 1.01 | 0.931 | 0.986 | 0.944 | 0.801 | 0.588 | 0.672 | 0.652 | 0.853
2 | NCI-H322M | 0.565 | 0.488 | 0.361 | 0.382 | 0.366 | 0.903 | 0.831 | 0.899 | 0.818 | 0.499 | 1.25 | 1.12 | 1.22 | 1.23 | 1.13 | 0.813 | 0.756 | 0.744 | 0.917 | 0.773
3 | NCI-H441 | 1.28 | 0.966 | 0.93 | 0.69 | 0.478 | 0.833 | 0.765 | 0.951 | 0.921 | 0.435 | 0.535 | 0.588 | 0.522 | 0.319 | 0.523 | 0.647 | 0.633 | 0.829 | 0.824 | 0.745
4 | NCI-H460 | 0.568 | 0.411 | 0.217 | 0.117 | 0.0688 | 1.02 | 0.619 | 0.528 | 0.111 | 0.0517 | 1.13 | 0.929 | 1.19 | 0.998 | 1.2 | 0.542 | 0.495 | 0.552 | 0.434 | 0.435
5 | NCI-H596 | 1.03 | 0.918 | 0.915 | 0.961 | 0.787 | 0.703 | 0.579 | 0.604 | 0.557 | 0.51 | 0.923 | 1.09 | 0.976 | 1.18 | 1.05 | 0.438 | 0.448 | 0.51 | 0.472 | 0.545
6 | NCI-H647 | 0.46 | 0.235 |  | 0.217 | 0.0695 | 0.556 | 0.689 | 0.646 | 0.469 | 0.287 | 1.01 | 0.925 | 1.12 | 1.05 | 1.1 | 1.09 | 0.979 | 1.15 | 0.798 | 1.45
7 | NCI-H650 | 0.873 | 0.954 | 0.992 | 0.836 | 1.04 | 0.443 | 0.403 | 0.395 | 0.471 | 0.409 | 0.855 | 0.735 | 0.795 | 0.732 | 0.687 | 1.1 | 1.14 | 1.14 | 1.04 | 1.17
8 | NCI-H727 | 0.512 | 0.495 | 0.411 | 0.382 | 0.41 | 1.12 | 1.28 | 1.16 | 1.02 | 1.16 | 0.876 | 0.835 | 0.905 | 0.939 | 0.77 | 0.601 | 0.563 | 0.555 | 0.529 | 0.611
9 | NCI-H838 | 0.944 | 0.859 | 0.771 | 0.727 | 0.692 | 0.755 | 0.688 | 0.697 | 0.69 | 0.542 | 0.603 | 1.11 | 0.679 | 0.817 | 1.05 | 0.904 | 0.952 | 1.09 | 0.978 | 1.02
10 | NCI-H1355 | 0.773 | 0.621 | 0.499 | 0.539 | 0.195 | 0.819 | 0.61 | 0.663 | 0.72 | 0.57 | 1.23 | 1.18 | 1.12 | 1.1 | 1.11 | 0.902 | 0.882 | 0.838 | 0.853 | 0.787
11 | NCI-H1437 | 1.13 | 1.12 | 0.956 | 1.11 | 0.514 | 0.847 | 0.797 | 0.901 | 0.777 | 0.611 | 0.408 | 0.597 | 0.594 | 0.541 | 0.539 | 0.972 | 0.901 | 1.06 | 0.961 | 0.987
12 | NCI-H1651 | 0.457 | 0.386 | 0.4 | 0.463 | 0.366 | 0.562 | 0.606 | 0.583 | 0.556 | 0.531 | 1 | 0.936 | 0.953 | 0.619 | 0.882 | 0.922 | 0.877 | 1.04 | 0.81 | 1.09
13 | NCI-H1666 | 0.753 | 0.705 | 0.798 | 0.705 | 0.713 | 1.14 | 1.06 | 1.18 | 1.01 | 0.942 | 0.755 | 0.765 | 0.906 | 0.722 | 0.956 | 0.913 | 0.879 | 0.813 | 1.01 | 1.13
14 | NCI-H1734 | 0.4 | 0.428 | 0.334 | 0.334 | 0.184 | 1.03 | 0.762 | 0.733 | 0.707 | 0.44 | 0.89 | 0.835 | 0.949 | 0.858 | 1.03 | 0.651 | 0.586 | 0.661 | 0.63 | 0.719
15 | NCI-H1755 | 0.434 | 0.368 | 0.38 | 0.323 | 0.175 | 0.778 | 0.638 | 0.734 | 0.792 | 0.615 | 0.903 | 0.947 | 1.05 | 0.966 | 1.01 | 0.921 | 0.912 | 0.957 | 0.868 | 0.942
16 | NCI-H1915 | 0.7 | 0.618 | 0.594 | 0.537 | 0.321 | 0.623 | 0.509 | 0.451 | 0.536 | 0.457 | 1.05 | 0.976 | 0.985 | 0.905 | 0.953 | 0.996 | 1.09 | 1.07 | 1.03 | 1.12
17 | NCI-H1975 | 0.75 | 0.69 | 0.667 | 0.604 | 0.462 | 0.749 | 0.697 | 0.706 | 0.647 | 0.516 | 0.381 | 0.396 | 0.374 | 0.373 | 0.398 | 0.621 | 0.649 | 0.617 | 0.611 | 0.721
18 | NCI-H1993 | 0.958 | 0.669 | 0.603 | 0.723 | 0.552 | 0.759 | 0.657 | 0.966 | 0.762 | 0.548 | 1.03 | 1.24 | 0.983 | 1.05 | 1.08 | 0.684 | 0.655 | 0.713 | 0.687 | 0.629
19 | NCI-H2085 | 0.952 | 0.843 | 0.366 |  | 0.271 | 0.935 | 0.754 | 0.609 |  | 0.511 | 1.08 | 0.985 | 1.06 | 1.1 | 1.02 | 0.899 | 0.841 | 0.992 | 0.931 | 0.962
20 | NCI-H2087 | 1.6 | 1.08 | 1.12 | 1.04 | 0.66 | 0.667 | 0.666 | 0.838 | 0.79 | 0.675 | 0.745 | 0.786 | 0.699 | 0.587 | 0.836 | 1.02 | 1.07 | 1.05 | 1 | 0.995
21 | NCI-H2126 | 1.07 | 1.05 | 0.987 | 0.928 | 0.615 | 0.722 | 0.78 | 0.749 | 0.727 | 0.497 | 1.08 | 1.09 | 1.1 | 1.14 | 1.15 | 0.681 | 0.734 | 0.782 | 0.686 | 0.706
22 | NCI-H2347 | 0.703 | 0.746 | 0.42 | 0.698 | 0.531 | 0.531 | 0.555 | 0.465 | 0.818 | 0.558 | 1 | 0.9 |  | 0.969 | 0.968 | 0.966 | 0.994 | 0.91 | 1.02 | 1.1
23 | NCI-H2405 | 0.791 | 0.677 | 0.598 | 0.553 | 0.25 | 1.09 | 0.977 | 0.992 | 0.984 | 0.859 | 0.833 | 0.977 | 0.978 | 0.92 | 0.995 |  | 0.81 | 0.676 | 0.603 | 0.875
24 | NCI-H3122 | 1.05 | 0.857 | 0.97 | 0.654 | 0.545 | 1.11 | 1.01 | 0.978 | 1.13 | 0.908 | 1.03 | 1.05 | 1.01 | 0.986 | 0.935 | 0.798 | 0.726 | 0.816 | 0.78 | 0.629
25 | PC-3 [JPC-3] | 0.882 | 0.728 | 0.99 | 0.798 | 0.62 | 0.815 | 0.734 | 0.858 | 0.883 | 0.664 | 0.827 | 0.929 | 0.786 | 0.766 | 0.93 | 0.971 | 1.04 | 1.04 | 0.941 | 0.972
26 | PC-14 | 0.362 | 0.232 | 0.315 | 0.338 | 0.187 | 0.95 | 0.68 | 0.613 | 0.639 | 0.255 | 0.802 | 0.779 | 0.994 | 0.761 | 0.755 | 0.884 | 0.888 | 1.03 | 0.907 | 0.926
27 | RERF-LC-KJ | 0.994 | 0.975 | 0.974 | 1.03 | 0.688 | 0.765 | 0.731 | 0.609 | 0.761 | 0.623 | 1.06 | 1.07 | 1.18 | 1.15 | 1.02 | 0.789 | 0.748 | 0.909 | 0.748 | 0.773

Source: the supplement of paper PMC10307832
